According to US6159940A, “Method for modulating hemopoiesis” (Immunotech Developments Inc., priority 1999, dated 2000):

Key:
nucleated blood cells = experiment: Karyocyte and lymphocyte counts in blood of irradiated mice (4 Gy), scheme 2; type: in vivo
Method: Irradiated mice (4 Gy) received intramuscular injections of the peptide in the dose of 10 μg/kg according to 2 schemes.
b) According to scheme 2, the peptide injections were made starting from the 3rd day after the irradiation, at the same time of maximum depletion of the pool of mature nucleated cells and the bone marrow. The groups of mice were formed in the same way as in the previous scheme. […] Tables 9 and 10 present the data on karyocyte and lymphocyte counts in blood (per 1 mm^3) of mice treated according to scheme 2.

Solubility = type: physicochemical
Source text: The peptide prepared using this process is a yellowish grey or white powder, soluble in water, substantially insoluble in alcohol and substantially insoluble in chloroform. It has a UV spectrum in the range of 250-300 nm with a maximum at 280±2 nm.

Substance: H-Ile-Glu-Trp-OH
- Karyocyte Count in Blood (nucleated blood cells; scheme 2, 1 Time, Day 7): 1.64 ± 0.2 × 10^3
- Lymphocyte in Blood (Absolute) (nucleated blood cells; scheme 2, 1 Time, Day 7): 232
- Lymphocyte in Blood, % (nucleated blood cells; scheme 2, 1 Time, Day 7): 45.1 ± 3.9%
- Karyocyte Count in Blood (nucleated blood cells; scheme 2, 1 Time, Day 11): 1.88 ± 0.3 × 10^3
- Lymphocyte in Blood (Absolute) (nucleated blood cells; scheme 2, 1 Time, Day 11): 1365
- Lymphocyte in Blood, % (nucleated blood cells; scheme 2, 1 Time, Day 11): 49.2 ± 3.8%
- Karyocyte Count in Blood (nucleated blood cells; scheme 2, 1 Time, Day 14): 1.50 ± 0.2 × 10^3
- Lymphocyte in Blood (Absolute) (nucleated blood cells; scheme 2, 1 Time, Day 14): 1118
- Lymphocyte in Blood, % (nucleated blood cells; scheme 2, 1 Time, Day 14): 43.3 ± 3.2%
- Karyocyte Count in Blood (nucleated blood cells; scheme 2, 1 Time, Day 18): 2.62 ± 0.2 × 10^3
- Lymphocyte in Blood (Absolute) (nucleated blood cells; scheme 2, 1 Time, Day 18): 2412
- Lymphocyte in Blood, % (nucleated blood cells; scheme 2, 1 Time, Day 18): 30.6 ± 2.9%
- Karyocyte Count in Blood (nucleated blood cells; scheme 2, 1 Time, Day 21): 1.63 ± 0.2 × 10^3
- Lymphocyte in Blood (Absolute) (nucleated blood cells; scheme 2, 1 Time, Day 21): 743
- Lymphocyte in Blood, % (nucleated blood cells; scheme 2, 1 Time, Day 21): 45.6 ± 3.9%
- Karyocyte Count in Blood (nucleated blood cells; scheme 2, 2 Times, Day 7): 1.33 ± 0.2 × 10^3
- Lymphocyte in Blood (Absolute) (nucleated blood cells; scheme 2, 2 Times, Day 7): 701
- Lymphocyte in Blood, % (nucleated blood cells; scheme 2, 2 Times, Day 7): 52.7 ± 2.9%
- Karyocyte Count in Blood (nucleated blood cells; scheme 2, 2 Times, Day 11): 2.03 ± 0.3 × 10^3
- Lymphocyte in Blood (Absolute) (nucleated blood cells; scheme 2, 2 Times, Day 11): 915
- Lymphocyte in Blood, % (nucleated blood cells; scheme 2, 2 Times, Day 11): 45.1 ± 5.4%
- Karyocyte Count in Blood (nucleated blood cells; scheme 2, 2 Times, Day 14): 1.60 ± 0.2 × 10^3
- Lymphocyte in Blood (Absolute) (nucleated blood cells; scheme 2, 2 Times, Day 14): 619
- Lymphocyte in Blood, % (nucleated blood cells; scheme 2, 2 Times, Day 14): 38.8 ± 2.2%
- Karyocyte Count in Blood (nucleated blood cells; scheme 2, 2 Times, Day 18): 1.67 ± 0.1 × 10^3
- Lymphocyte in Blood (Absolute) (nucleated blood cells; scheme 2, 2 Times, Day 18): 703
- Lymphocyte in Blood, % (nucleated blood cells; scheme 2, 2 Times, Day 18): 42.1 ± 1.4%
- Karyocyte Count in Blood (nucleated blood cells; scheme 2, 2 Times, Day 21): 2.70 ± 0.2 × 10^3
- Lymphocyte in Blood (Absolute) (nucleated blood cells; scheme 2, 2 Times, Day 21): 1220
- Lymphocyte in Blood, % (nucleated blood cells; scheme 2, 2 Times, Day 21): 45.2 ± 2.3%
- Karyocyte Count in Blood (nucleated blood cells; scheme 2, 3 Times, Day 7): 2.22 ± 0.3 × 10^3
- Lymphocyte in Blood (Absolute) (nucleated blood cells; scheme 2, 3 Times, Day 7): 968
- Lymphocyte in Blood, % (nucleated blood cells; scheme 2, 3 Times, Day 7): 43.6 ± 2.1%
- Karyocyte Count in Blood (nucleated blood cells; scheme 2, 3 Times, Day 11): 1.94 ± 0.2 × 10^3
- Lymphocyte in Blood (Absolute) (nucleated blood cells; scheme 2, 3 Times, Day 11): 892
- Lymphocyte in Blood, % (nucleated blood cells; scheme 2, 3 Times, Day 11): 46.3 ± 5.4%
- Karyocyte Count in Blood (nucleated blood cells; scheme 2, 3 Times, Day 14): 1.50 ± 0.2 × 10^3
- Lymphocyte in Blood (Absolute) (nucleated blood cells; scheme 2, 3 Times, Day 14): 744
- Lymphocyte in Blood, % (nucleated blood cells; scheme 2, 3 Times, Day 14): 47.7 ± 6.1%
- Karyocyte Count in Blood (nucleated blood cells; scheme 2, 3 Times, Day 18): 2.07 ± 0.2 × 10^3
- Lymphocyte in Blood (Absolute) (nucleated blood cells; scheme 2, 3 Times, Day 18): 7353
- Lymphocyte in Blood, % (nucleated blood cells; scheme 2, 3 Times, Day 18): 35.5 ± 1.4%
- Karyocyte Count in Blood (nucleated blood cells; scheme 2, 3 Times, Day 21): 2.45 ± 0.4 × 10^3
- Lymphocyte in Blood (Absolute) (nucleated blood cells; scheme 2, 3 Times, Day 21): 1289
- Lymphocyte in Blood, % (nucleated blood cells; scheme 2, 3 Times, Day 21): 52.5 ± 3.2%
- Karyocyte Count in Blood (nucleated blood cells; scheme 2, 4 Times, Day 7): 2.71 ± 0.4 × 10^3
- Lymphocyte in Blood (Absolute) (nucleated blood cells; scheme 2, 4 Times, Day 7): 1231
- Lymphocyte in Blood, % (nucleated blood cells; scheme 2, 4 Times, Day 7): 45.6 ± 2.5%
- Karyocyte Count in Blood (nucleated blood cells; scheme 2, 4 Times, Day 11): 3.03 ± 0.5 × 10^3
- Lymphocyte in Blood (Absolute) (nucleated blood cells; scheme 2, 4 Times, Day 11): 1406
- Lymphocyte in Blood, % (nucleated blood cells; scheme 2, 4 Times, Day 11): 42.6 ± 3.6%
- Karyocyte Count in Blood (nucleated blood cells; scheme 2, 4 Times, Day 14): 1.17 ± 0.1 × 10^3
- Lymphocyte in Blood (Absolute) (nucleated blood cells; scheme 2, 4 Times, Day 14): 515
- Lymphocyte in Blood, % (nucleated blood cells; scheme 2, 4 Times, Day 14): 44.0 ± 3.1%
- Karyocyte Count in Blood (nucleated blood cells; scheme 2, 4 Times, Day 18): 2.48 ± 0.1 × 10^3
- Lymphocyte in Blood (Absolute) (nucleated blood cells; scheme 2, 4 Times, Day 18): 1116
- Lymphocyte in Blood, % (nucleated blood cells; scheme 2, 4 Times, Day 18): 45.1 ± 1.8%
- Karyocyte Count in Blood (nucleated blood cells; scheme 2, 4 Times, Day 21): 1.66 ± 0.2 × 10^3
- Lymphocyte in Blood (Absolute) (nucleated blood cells; scheme 2, 4 Times, Day 21): 789
- Lymphocyte in Blood, % (nucleated blood cells; scheme 2, 4 Times, Day 21): 47.5 ± 5.3%
- Solubility (Solubility; alcohol): moderately soluble
- Solubility (Solubility; chloroform): insoluble
- Solubility (Solubility; water): readily soluble
